One data set addresses PDZ1-2 of PSD-95 (Homo sapiens, UniProt P78352). As to the kind of experiment: Fluorescence polarization (FP) competition assay, affinity to PDZ1-2 of PSD-95. Format: binding. As to conditions: mean ± SEM. As to the method:
First, a saturation binding curve was obtained to determine KD values for the interaction between a fluorescent dimeric probe and PDZ1-2 of PSD-95. Increasing concentrations of PDZ1-2 (0.015-30 nM) were added to a constant concentration of the probe (0.5 nM). The fluorescence polarization (FP) of the sample was measured at excitation/emission wavelength of 635/670 nm and the generated FP values were fitted to a one site binding model using the software GraphPad Prism. […] The FP values were fitted to a one site competition (variable slope) model in GraphPad prism. The resulting IC50 values were converted to Ki values as described previously by Nikolovska-Coleska et al., Anal. Biochem., 2004, 332, 261).
(In fluorescence polarisation assays a small probe gives low polarisation when free and higher when bound to something large.)

For the next data set, the target named is T1, plasmin (Homo sapiens, UniProt P00747).
T1 construct: Tissue plasminogen factor (tPA), which generates plasmin from plasminogen
T1 sequence (P00747 581-810 limits assumed, species assumed): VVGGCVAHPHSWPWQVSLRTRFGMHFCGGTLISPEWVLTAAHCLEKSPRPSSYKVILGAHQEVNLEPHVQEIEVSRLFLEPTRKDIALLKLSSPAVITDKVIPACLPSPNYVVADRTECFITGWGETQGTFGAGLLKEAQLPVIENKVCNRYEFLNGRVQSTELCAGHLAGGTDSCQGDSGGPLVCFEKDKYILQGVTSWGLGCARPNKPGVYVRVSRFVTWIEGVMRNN
T1 sequence (P00747 97-580 partner limits assumed, species assumed): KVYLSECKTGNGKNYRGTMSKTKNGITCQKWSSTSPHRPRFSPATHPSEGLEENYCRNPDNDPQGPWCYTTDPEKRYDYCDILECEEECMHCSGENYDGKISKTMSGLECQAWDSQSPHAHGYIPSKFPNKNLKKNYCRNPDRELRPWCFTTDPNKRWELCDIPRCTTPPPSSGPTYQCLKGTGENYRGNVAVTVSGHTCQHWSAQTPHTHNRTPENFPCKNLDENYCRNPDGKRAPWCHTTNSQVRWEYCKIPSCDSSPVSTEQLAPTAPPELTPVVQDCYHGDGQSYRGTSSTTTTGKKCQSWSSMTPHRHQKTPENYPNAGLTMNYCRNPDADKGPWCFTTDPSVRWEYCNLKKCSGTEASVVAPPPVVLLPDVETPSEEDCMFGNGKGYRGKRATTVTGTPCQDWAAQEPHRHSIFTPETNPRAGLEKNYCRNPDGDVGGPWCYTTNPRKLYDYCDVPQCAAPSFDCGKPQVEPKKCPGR
In words: In vitro plasmin stability assay. The class given is in vitro ADME. As to conditions: isolated enzyme plasmin; read-out: T1/2. As for the experimental part:
At selected time points during the incubation, the ligands were extracted from 80 μL of assay matrix by treatment with 80 μL of 50% acetonitrile (ACN). The samples were filtered and analysed by UPLC to determine the amount of ligand remaining. LC-MS analysis was performed to confirm ligand integrity and identify cleavage sites.

The mark [1] stands for this setting: OPEG4 dimers without CPP, n ≥ 3 (Table 4, FIG. 1).
Where [2] appears, read: dimeric ligands fused to L-TAT and L-Arg9, n ≥ 3 (Table 5, FIG. 2).

Broadly, the Ki is the dissociation constant of the complex between target and ligand, obtained from inhibition or displacement.

Starred links: 1 amine or outer side, 2 acyl side, 3 side chain; linkers in the order of their positions; H or OH if unused. Positions of bridges follow the written chain, without caps; N, C: chain ends. Residues, ends and D or L forms follow the SMILES beside them. Chains are numbered I, II in the order given. CO(CH2CH2O)5CH2CH2CO = O=C(CCOCCOCCOCCOCCOCCC(=O)[*:2])[*:1]

Chain of PDZ1-2 of PSD-95 (P78352 61-249 limits assumed): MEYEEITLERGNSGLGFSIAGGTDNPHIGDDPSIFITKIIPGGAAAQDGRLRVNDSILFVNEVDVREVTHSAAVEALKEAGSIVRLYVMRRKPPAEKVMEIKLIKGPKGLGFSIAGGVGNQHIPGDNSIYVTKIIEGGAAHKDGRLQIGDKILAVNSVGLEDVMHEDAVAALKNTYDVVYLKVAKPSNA

With `CC(C)[C@H](NC(=O)[C@@H](NC(=O)[C@@H](NC(=O)[C@H](CCC(=O)O)NC(=O)[C@H](CCCCN)NC(=O)CCOCCOCCOCCOCCOCCC(=O)N[C@@H](CCCCN)C(=O)N[C@@H](CCC(=O)O)C(=O)N[C@H](C(=O)N[C@H](C(=O)N[C@H](C(=O)O)C(C)C)[C@@H](C)O)[C@@H](C)O)[C@@H](C)O)[C@@H](C)O)C(=O)O` [Compound 3, OPEG4-(KETTV)2], the Ki at PDZ1-2 of PSD-95 (setting [1]) amounted to 14.4 ± 0.4 nM. Consider `CC(=O)N[C@@H](Cc1ccc(O)cc1)C(=O)NCC(=O)N[C@@H](CCCNC(=N)N)C(=O)N[C@@H](CCCCN)C(=O)N[C@@H](CCCCN)C(=O)N[C@@H](CCCNC(=N)N)C(=O)N[C@@H](CCCNC(=N)N)C(=O)N[C@@H](CCC(N)=O)C(=O)N[C@@H](CCCNC(=N)N)C(=O)N[C@@H](CCCNC(=N)N)C(=O)N[C@@H](CCCNC(=N)N)C(=O)N(CCOCCOCCC(=O)N[C@@H](CCCCN)C(=O)N[C@@H](CCC(=O)O)C(=O)N[C@H](C(=O)N[C@@H](CCCNC(=N)N)C(=O)N[C@H](C(=O)O)C(C)C)[C@@H](C)O)CCOCCOCCC(=O)N[C@@H](CCCCN)C(=O)N[C@@H](CCC(=O)O)C(=O)N[C@H](C(=O)N[C@@H](CCCNC(=N)N)C(=O)N[C@H](C(=O)O)C(C)C)[C@@H](C)O` [Compound 17], for which, on PDZ1-2 of PSD-95 (setting [2]), the Ki is 6.6 ± 0.6 nM. In addition, the half-life at plasmin came to 6.42 ± 2.17 h. At PDZ1-2 of PSD-95 (setting [1]), `CC(C)[C@H](NC(=O)[C@@H](NC(=O)[C@@H](NC(=O)[C@H](CCC(=O)O)NC(=O)[C@H](CCCCN)NC(=O)CCOCCOCCOCCOCCOCCC(=O)N[C@@H](CCCCN)C(=O)N[C@@H](CCC(=O)O)C(=O)N[C@H](C(=O)N[C@H](C(=O)N[C@H](C(=O)O)C(C)C)C(C)C)[C@@H](C)O)[C@@H](C)O)C(C)C)C(=O)O` [Compound 4, OPEG4-(KETVV)2] (I: KETVV-OH / II: KETVV-OH; linker I:N-II:N via CO(CH2CH2O)5CH2CH2CO; C-terminus assumed) returned a Ki of 15.8 ± 1.2 nM.

The compound `CC[C@H](C)[C@H](NC(=O)CCOCCOCCN(CCOCCOCCC(=O)N[C@H](C(=O)N[C@@H](CO)C(=O)N[C@H](C(=O)N[C@@H](CC(=O)O)C(=O)N[C@H](C(=O)O)C(C)C)[C@@H](C)O)[C@@H](C)CC)C(=O)[C@H](CCCNC(=N)N)NC(=O)[C@H](CCCNC(=N)N)NC(=O)[C@H](CCCNC(=N)N)NC(=O)[C@H](CCC(N)=O)NC(=O)[C@H](CCCNC(=N)N)NC(=O)[C@H](CCCNC(=N)N)NC(=O)[C@H](CCCCN)NC(=O)[C@H](CCCCN)NC(=O)[C@H](CCCNC(=N)N)NC(=O)CNC(=O)[C@H](Cc1ccc(O)cc1)NC(C)=O)C(=O)N[C@@H](CO)C(=O)N[C@H](C(=O)N[C@@H](CC(=O)O)C(=O)N[C@H](C(=O)O)C(C)C)[C@@H](C)O` [Compound 19] displayed a Ki at PDZ1-2 of PSD-95 (setting [2]) of 36.1 ± 1.8 nM. Also, the half-life on plasmin was found to be 8.9 ± 0.667 h.

In turn, `CC(=O)N[C@@H](Cc1ccc(O)cc1)C(=O)NCC(=O)N[C@@H](CCCNC(=N)N)C(=O)N[C@@H](CCCCN)C(=O)N[C@@H](CCCCN)C(=O)N[C@@H](CCCNC(=N)N)C(=O)N[C@@H](CCCNC(=N)N)C(=O)N[C@@H](CCC(N)=O)C(=O)N[C@@H](CCCNC(=N)N)C(=O)N[C@@H](CCCNC(=N)N)C(=O)N[C@@H](CCCNC(=N)N)C(=O)N(CCOCCOCCC(=O)N[C@@H](CCCCN)C(=O)N[C@@H](CCC(=O)O)C(=O)N[C@H](C(=O)N[C@H](C(=O)N[C@H](C(=O)O)C(C)C)C(C)C)[C@@H](C)O)CCOCCOCCC(=O)N[C@@H](CCCCN)C(=O)N[C@@H](CCC(=O)O)C(=O)N[C@H](C(=O)N[C@H](C(=O)N[C@H](C(=O)O)C(C)C)C(C)C)[C@@H](C)O` [Compound 15] yielded a Ki at PDZ1-2 of PSD-95 (setting [2]) of 2.1 ± 0.2 nM. Besides, the half-life at plasmin is 6.42 ± 2.17 h. As to `CC(C)C[C@H](NC(=O)[C@@H](NC(=O)[C@H](CCC(=O)O)NC(=O)[C@H](CCCCN)NC(=O)CCOCCOCCOCCOCCOCCC(=O)N[C@@H](CCCCN)C(=O)N[C@@H](CCC(=O)O)C(=O)N[C@H](C(=O)N[C@@H](CC(C)C)C(=O)N[C@H](C(=O)O)C(C)C)[C@@H](C)O)[C@@H](C)O)C(=O)N[C@H](C(=O)O)C(C)C` [Compound 2, OPEG4-(KETLV)2], the affinity at PDZ1-2 of PSD-95 (setting [1]), expressed as Ki, was 11.1 ± 0.3 nM.

These data come from patent US20240245793A1, “PSD-95 INHIBITORS AND USES THEREOF” (priority 2021, published 2024).
